Results: the NIST ThermoML archive (doi:10.1021/acs.jced.8b00438)

Experiment: xn = mol fraction of the nth substance listed
Settings: 100 kPa, Liquid; for viscosity: Falling or rolling sphere viscometry; for mass density: Vibrating tube method

CCCCCCCCCCCC [dodecane] + CCCCO
Settings | mass density [kg/m3] | viscosity [mPa·s]
293.15 K, x1 = 0.1045 | 794.67 | 2.478
293.15 K, x1 = 0.2008 | 784.43 | 2.167
293.15 K, x1 = 0.3002 | 776.26 | 1.935
293.15 K, x1 = 0.3985 | 769.8 | 1.772
293.15 K, x1 = 0.4995 | 764.28 | 1.64
293.15 K, x1 = 0.5978 | 759.94 | 1.561
293.15 K, x1 = 0.7012 | 755.99 | 1.494
293.15 K, x1 = 0.7671 | 754.1 | 1.476
293.15 K, x1 = 0.8773 | 751.22 | 1.458
293.15 K, x1 = 1 | 748.83 | 1.491
298.15 K, x1 = 0.1045 | 790.86 | 2.183
298.15 K, x1 = 0.2008 | 780.62 | 1.919
298.15 K, x1 = 0.3002 | 772.45 | 1.722
298.15 K, x1 = 0.3985 | 765.97 | 1.588
298.15 K, x1 = 0.4995 | 760.49 | 1.477
298.15 K, x1 = 0.5978 | 756.17 | 1.414
298.15 K, x1 = 0.7012 | 752.24 | 1.359
298.15 K, x1 = 0.7671 | 750.38 | 1.345
298.15 K, x1 = 0.8773 | 747.52 | 1.331
298.15 K, x1 = 1 | 745.22 | 1.366
303.15 K, x1 = 0.1045 | 787.01 | 1.934
303.15 K, x1 = 0.2008 | 776.76 | 1.709
303.15 K, x1 = 0.3002 | 768.59 | 1.543
303.15 K, x1 = 0.3985 | 762.12 | 1.43
303.15 K, x1 = 0.4995 | 756.67 | 1.338
303.15 K, x1 = 0.5978 | 752.37 | 1.287
303.15 K, x1 = 0.7012 | 748.47 | 1.242
303.15 K, x1 = 0.7671 | 746.62 | 1.231
303.15 K, x1 = 0.8773 | 743.81 | 1.22
303.15 K, x1 = 1 | 741.59 | 1.257
308.15 K, x1 = 0.1045 | 783.13 | 1.721
308.15 K, x1 = 0.2008 | 772.86 | 1.529
308.15 K, x1 = 0.3002 | 764.7 | 1.388
308.15 K, x1 = 0.3985 | 758.24 | 1.295
308.15 K, x1 = 0.4995 | 752.82 | 1.218
308.15 K, x1 = 0.5978 | 748.54 | 1.177
308.15 K, x1 = 0.7012 | 744.67 | 1.141
308.15 K, x1 = 0.7671 | 742.85 | 1.132
308.15 K, x1 = 0.8773 | 740.07 | 1.124
308.15 K, x1 = 1 | 737.95 | 1.154
313.15 K, x1 = 0.1045 | 779.2 | 1.537
313.15 K, x1 = 0.2008 | 768.93 | 1.373
313.15 K, x1 = 0.3002 | 760.78 | 1.254
313.15 K, x1 = 0.3985 | 754.33 | 1.177
313.15 K, x1 = 0.4995 | 748.93 | 1.114
313.15 K, x1 = 0.5978 | 744.69 | 1.082
313.15 K, x1 = 0.7012 | 740.88 | 1.051
313.15 K, x1 = 0.7671 | 739.06 | 1.045
313.15 K, x1 = 0.8773 | 736.32 | 1.04
313.15 K, x1 = 1 | 734.31 | 1.076
318.15 K, x1 = 0.1045 | 775.23 | 1.379
318.15 K, x1 = 0.2008 | 764.95 | 1.239
318.15 K, x1 = 0.3002 | 756.81 | 1.138
318.15 K, x1 = 0.3985 | 750.39 | 1.075
318.15 K, x1 = 0.4995 | 745.02 | 1.022
318.15 K, x1 = 0.5978 | 740.81 | 0.997
318.15 K, x1 = 0.7012 | 737.02 | 0.972
318.15 K, x1 = 0.7671 | 735.24 | 0.968
318.15 K, x1 = 0.8773 | 732.55 | 0.964
318.15 K, x1 = 1 | 730.66 | 1.003
323.15 K, x1 = 0.1045 | 771.21 | 1.241
323.15 K, x1 = 0.2008 | 760.93 | 1.122
323.15 K, x1 = 0.3002 | 752.8 | 1.038
323.15 K, x1 = 0.3985 | 746.41 | 0.985
323.15 K, x1 = 0.4995 | 741.07 | 0.942
323.15 K, x1 = 0.5978 | 736.9 | 0.923
323.15 K, x1 = 0.7012 | 733.15 | 0.902
323.15 K, x1 = 0.7671 | 731.4 | 0.9
323.15 K, x1 = 0.8773 | 728.77 | 0.899
323.15 K, x1 = 1 | 727 | 0.936
328.15 K, x1 = 0.1045 | 767.14 | 1.121
328.15 K, x1 = 0.2008 | 756.86 | 1.02
328.15 K, x1 = 0.3002 | 748.75 | 0.949
328.15 K, x1 = 0.3985 | 742.38 | 0.906
328.15 K, x1 = 0.4995 | 737.08 | 0.871
328.15 K, x1 = 0.5978 | 732.96 | 0.856
328.15 K, x1 = 0.7012 | 729.25 | 0.84
328.15 K, x1 = 0.7671 | 727.53 | 0.839
328.15 K, x1 = 0.8773 | 724.96 | 0.839
328.15 K, x1 = 1 | 723.33 | 0.877
333.15 K, x1 = 0.1045 | 763.01 | 1.017
333.15 K, x1 = 0.2008 | 752.73 | 0.931
333.15 K, x1 = 0.3002 | 744.64 | 0.871
333.15 K, x1 = 0.3985 | 738.31 | 0.837
333.15 K, x1 = 0.4995 | 733.06 | 0.808
333.15 K, x1 = 0.5978 | 728.98 | 0.797
333.15 K, x1 = 0.7012 | 725.32 | 0.784
333.15 K, x1 = 0.7671 | 723.64 | 0.785
333.15 K, x1 = 0.8773 | 721.13 | 0.785
333.15 K, x1 = 1 | 719.65 | 0.823
